From patent US12600925B2, “Laundry sanitizing and softening compositions” (Reckitt Benckiser LLC, priority 2023, dated 2026)

Test system: Staphylococcus epidermidis
Experiment: Minimum inhibitory concentration, BKC / polymer synergy, 96-well microtiter
Format: cell-based
Settings: second test (lower line of each polymer); 24 h, 37° C.; 100% active
Method: Take well-defined and typical colonies of Staphylococcus epidermidis from a recent plate of tryptic soy agar (TSA), dissolve and vortex them in a tube containing 30 mL of tryptic soy broth (TSB) and incubate for 17+/−1h at 37° C.+/−1° C. Quantify by plate count in TSA (incubated for 48h+/−1h at 37° C.+/−1° C.). Use the broth culture suspension within seven (7) days after the incubation period. Vortex and take 0.2 mL from the broth culture and dilute in appropriate volume of 0.85% NaCl to normalize the strain at 3-5×10^5 CFU/mL Using a micropipette, add 100 μL of TSB in a 96-well microtiter plate format. […] (both samples are the same) Using a micropipette take 100 μL of the sample from column 2 and dilute it in column 3 performing a 1:1 dilution with the diluent already present in the wells, proceeding with a serial dilution up to column 9. Discard the remaining 100 μL. […] Dispense 100 μL of inoculum using a micropipette into each well in columns 2 to 10. Columns 1 and 11 are the sample sterility test and negative test control columns, respectively. No growth should be observed in these columns. Column 10 is the positive test control and growth should be observed. […] Incubate the microwell plate for 24h+/−1h at 37° C.+/−1° C. The minimum inhibitory concentration (MIC) is determined by visually checking the wells for growth. […]

## C12-16 alkyldimethylbenzylammonium chloride [BKC]
  BKC MIC in ppm alone: 0.3-0.8 ppm
